In the NIST ThermoML archive (doi:10.1021/je0601457):
Numbers after ± are expanded uncertainties.

Experiment: xn = mol fraction of the nth substance listed

c1cnccn1 [pyrazine] + O=C=O
Fluid (supercritical or subcritical phases), Linear displacement technique
Details	mass density [kg/m3]
321.55 K, 14590 kPa, x1 = 0.177	866 ± 35
322.35 K, 7410 kPa, x1 = 0.495	980 ± 39
322.35 K, 10310 kPa, x1 = 0.495	990 ± 40
322.35 K, 13000 kPa, x1 = 0.495	963 ± 39
323.35 K, 10030 kPa, x1 = 0.074	825 ± 48
323.35 K, 10240 kPa, x1 = 0.074	835 ± 34
323.35 K, 11900 kPa, x1 = 0.074	876 ± 35
324.65 K, 9340 kPa, x1 = 0.015	394 ± 23
324.65 K, 9620 kPa, x1 = 0.015	408 ± 39
324.65 K, 9830 kPa, x1 = 0.015	423 ± 37
324.65 K, 10970 kPa, x1 = 0.015	576 ± 46
324.65 K, 11380 kPa, x1 = 0.015	611 ± 34
324.65 K, 11620 kPa, x1 = 0.015	627 ± 34
324.65 K, 11760 kPa, x1 = 0.015	640 ± 33
325.85 K, 10170 kPa, x1 = 0.116	739 ± 30
325.85 K, 13140 kPa, x1 = 0.116	767 ± 31
326.15 K, 9900 kPa, x1 = 0.019	460 ± 57
326.15 K, 10520 kPa, x1 = 0.019	580 ± 53
326.15 K, 11140 kPa, x1 = 0.019	656 ± 42
326.15 K, 11520 kPa, x1 = 0.019	688 ± 33
326.15 K, 12310 kPa, x1 = 0.019	729 ± 30
326.65 K, 8860 kPa, x1 = 0.397	1023 ± 41
326.65 K, 11070 kPa, x1 = 0.397	1027 ± 41
326.65 K, 14100 kPa, x1 = 0.397	1036 ± 41
327.25 K, 10170 kPa, x1 = 0.146	980 ± 39
327.25 K, 15900 kPa, x1 = 0.146	990 ± 46
328.15 K, 11830 kPa, x1 = 0.308	980 ± 39
328.15 K, 13760 kPa, x1 = 0.308	990 ± 40
328.15 K, 15340 kPa, x1 = 0.308	997 ± 40
332.95 K, 18030 kPa, x1 = 0.224	879 ± 35
334.05 K, 11550 kPa, x1 = 0.177	803 ± 33
334.05 K, 11900 kPa, x1 = 0.177	809 ± 32
334.05 K, 15590 kPa, x1 = 0.177	831 ± 33
334.75 K, 10340 kPa, x1 = 0.495	980 ± 39
334.75 K, 13550 kPa, x1 = 0.495	987 ± 39
334.75 K, 19410 kPa, x1 = 0.495	1002 ± 40
337.05 K, 11660 kPa, x1 = 0.146	760 ± 31
337.05 K, 15140 kPa, x1 = 0.146	792 ± 32
337.85 K, 12170 kPa, x1 = 0.09	738 ± 31
337.85 K, 12590 kPa, x1 = 0.09	752 ± 32
337.85 K, 15900 kPa, x1 = 0.09	815 ± 33
338.45 K, 11520 kPa, x1 = 0.019	475 ± 20
338.45 K, 11970 kPa, x1 = 0.019	512 ± 36
338.45 K, 12170 kPa, x1 = 0.019	526 ± 35
338.45 K, 12590 kPa, x1 = 0.019	565 ± 36
339.45 K, 12590 kPa, x1 = 0.074	708 ± 44
339.45 K, 13280 kPa, x1 = 0.074	750 ± 46
340.95 K, 12380 kPa, x1 = 0.116	693 ± 28
340.95 K, 15210 kPa, x1 = 0.116	739 ± 30
345.05 K, 12450 kPa, x1 = 0.224	823 ± 33
345.05 K, 19340 kPa, x1 = 0.224	858 ± 34
345.55 K, 10380 kPa, x1 = 0.397	995 ± 40
345.55 K, 12480 kPa, x1 = 0.397	999 ± 40
345.55 K, 12860 kPa, x1 = 0.397	1002 ± 40
347.75 K, 13030 kPa, x1 = 0.177	758 ± 31
347.75 K, 14100 kPa, x1 = 0.177	770 ± 31
347.75 K, 16790 kPa, x1 = 0.177	792 ± 32
348.05 K, 12310 kPa, x1 = 0.308	965 ± 39
348.05 K, 17620 kPa, x1 = 0.308	986 ± 39
348.05 K, 19720 kPa, x1 = 0.308	996 ± 40
348.95 K, 13380 kPa, x1 = 0.09	684 ± 27
348.95 K, 13690 kPa, x1 = 0.09	683 ± 27
348.95 K, 16450 kPa, x1 = 0.09	771 ± 32
350.55 K, 13760 kPa, x1 = 0.116	665 ± 27
350.55 K, 15520 kPa, x1 = 0.116	707 ± 29
350.85 K, 13410 kPa, x1 = 0.146	708 ± 28
351.95 K, 13450 kPa, x1 = 0.074	604 ± 27
351.95 K, 16280 kPa, x1 = 0.074	719 ± 31
352.35 K, 11140 kPa, x1 = 0.019	335 ± 23
352.35 K, 11210 kPa, x1 = 0.019	352 ± 21
352.35 K, 12310 kPa, x1 = 0.019	415 ± 23
352.35 K, 12480 kPa, x1 = 0.019	428 ± 22
352.35 K, 12790 kPa, x1 = 0.019	443 ± 22
360.85 K, 14860 kPa, x1 = 0.116	630 ± 26
360.85 K, 17720 kPa, x1 = 0.116	695 ± 29
362.25 K, 14720 kPa, x1 = 0.177	709 ± 29
362.25 K, 14830 kPa, x1 = 0.177	712 ± 29
362.25 K, 19480 kPa, x1 = 0.177	761 ± 31
362.35 K, 14660 kPa, x1 = 0.224	779 ± 31
362.35 K, 18660 kPa, x1 = 0.224	802 ± 32
365.65 K, 15210 kPa, x1 = 0.09	591 ± 24
366.25 K, 14930 kPa, x1 = 0.074	542 ± 22
366.25 K, 15760 kPa, x1 = 0.074	547 ± 23
366.25 K, 16860 kPa, x1 = 0.074	511 ± 23
369.65 K, 14550 kPa, x1 = 0.397	964 ± 39
369.65 K, 16410 kPa, x1 = 0.397	968 ± 39
369.65 K, 20720 kPa, x1 = 0.397	982 ± 39
372.55 K, 11480 kPa, x1 = 0.495	959 ± 38
372.55 K, 12720 kPa, x1 = 0.495	962 ± 38
372.55 K, 15000 kPa, x1 = 0.495	970 ± 39

linear displacement
Details	mass density [kg/m3]
321.55 K, Liquid, x1 = 0.177	834 ± 33
322.35 K, Liquid, x1 = 0.495	975 ± 39
323.35 K, Liquid, x1 = 0.074	810 ± 32
324.65 K, Gas, x1 = 0.015	382 ± 15
325.85 K, Liquid, x1 = 0.116	734 ± 30
326.15 K, Gas, x1 = 0.019	442 ± 18
326.65 K, Liquid, x1 = 0.397	1017 ± 41
327.25 K, Liquid, x1 = 0.146	790 ± 32
328.15 K, Liquid, x1 = 0.308	970 ± 39
332.95 K, Liquid, x1 = 0.224	842 ± 34
334.05 K, Liquid, x1 = 0.177	795 ± 32
334.75 K, Liquid, x1 = 0.495	972 ± 39
337.05 K, Liquid, x1 = 0.146	753 ± 30
337.85 K, Liquid, x1 = 0.09	727 ± 29
338.45 K, Gas, x1 = 0.019	431 ± 18
339.45 K, Liquid, x1 = 0.074	695 ± 28
340.95 K, Liquid, x1 = 0.116	684 ± 27
345.05 K, Liquid, x1 = 0.224	816 ± 33
345.55 K, Liquid, x1 = 0.397	991 ± 40
347.75 K, Liquid, x1 = 0.177	751 ± 30
348.05 K, Liquid, x1 = 0.308	957 ± 38
348.95 K, Liquid, x1 = 0.09	672 ± 27
350.55 K, Liquid, x1 = 0.116	651 ± 26
350.85 K, Liquid, x1 = 0.146	703 ± 29
351.95 K, Liquid, x1 = 0.074	589 ± 24
352.35 K, Gas, x1 = 0.019	324 ± 18
360.85 K, Liquid, x1 = 0.116	620 ± 25
362.25 K, Liquid, x1 = 0.177	704 ± 29
362.35 K, Liquid, x1 = 0.224	770 ± 31
365.65 K, Liquid, x1 = 0.09	582 ± 23
366.25 K, Liquid, x1 = 0.074	532 ± 22
369.65 K, Liquid, x1 = 0.397	952 ± 38
372.55 K, Liquid, x1 = 0.495	955 ± 38
